Laboratory results reported in publication PMC5606850, “Acidic C-terminal domains autoregulate the RNA chaperone Hfq” (eLife, 2017).

What was measured:
Hfq65 = Hfq65 (Escherichia coli, UniProt P0A6X3); conditions: dsRNA product (D16-FAM·R16) versus ssRNA substrate (D16-FAM)
Protocol: Annealing kinetics of molecular beacon (50 nM) to either Target or Target-A18 RNA (100 nM) by 0–200 nM Hfq hexamer, in 1X TNK (10 mM Tris·HCl pH 7.5, 50 mM NaCl, 50 mM KCl) buffer at 30°C was measured by stopped-flow fluorescence spectroscopy as described previously ([Soper et al., 2011]; [Panja and Woodson, 2012b]). Annealing progress curves were fit to single or double-exponential rate equations.

D16-FAM·R16 = assay: anisotropy time-course of D16-FAM·R16 binding, annealing and release; format: biochemical; conditions: 50 nM D16-FAM, 50 nM Hfq hexamer, then 50 nM R16, TNK buffer, 30 °C, three trials
Protocol: (§1) Figure 4. Shortening the CTD increases auto-inhibition by acidic residues. (A) Observed annealing rate constants for 100 nM target RNA and 50 nM molecular beacon with 0–200 nM Hfq hexamer at 30°C, measured by stopped-flow fluorescence. Black, Hfq102; red, Hfq-sCTD; cyan, Hfq65. (B) Fluorescence anisotropy assay for RNA binding and release. In stopped-flow FRET experiments, the dsRNA is released after pairing with its complementary strand ([Panja et al., 2013]; [Santiago-Frangos et al., 2016]). […] Remaining RNA was displaced from Hfq by excess ssDNA (400 nM DNA2). The averages and standard deviations for three trials are plotted for each Hfq variant. […] (D) Annealing of 5 nM ^32P-ChiX sRNA with 30 nM chiP mRNA without Hfq, or with Hfq65, Hfq102 or Hfq-sCTD, as indicated above each lane. Samples were loaded on a native polyacrylamide gel 60 min or 20 s after the components were mixed. […] (E) Fractions of free ChiX (black), ChiX·chiP dsRNA (light grey), ChiX·Hfq·chiP ternary complex (hatched) and ChiX·Hfq binary complex (dark grey) after 4 min of annealing, as analyzed by EMSA (Figure 4—figure supplement 2). […] Annealing of 100 nM Target RNA to 50 nM beacon RNA by Hfq variants was measured by stopped flow fluorescence at 30°C in 1 × TNK buffer. […] The change in fluorescence emission intensity was normalized to the maximum fluorescence within an experiment. […]

Target and Target-U6 RNA = assay: RNA annealing kinetics (molecular beacon with Target and Target-U6), stopped-flow fluorescence; format: biochemical; conditions: 16 nt Target and Target-U6 RNA; 30 °C
Protocol: as §1

ChiX sRNA and chiP mRNA = assay: ChiX sRNA-chiP mRNA annealing, EMSA; format: biochemical, E. coli; conditions: 10 °C; for time to form ternary complex with ChiX and chiP: 5 nM ChiX, 30 nM chiP; for stability of ChiX·Hfq·chiP ternary complex: 33.3 nM Hfq hexamer, TNK buffer
Protocol: Figure 4. Shortening the CTD increases auto-inhibition by acidic residues. (A) Observed annealing rate constants for 100 nM target RNA and 50 nM molecular beacon with 0–200 nM Hfq hexamer at 30°C, measured by stopped-flow fluorescence. Black, Hfq102; red, Hfq-sCTD; cyan, Hfq65. (B) Fluorescence anisotropy assay for RNA binding and release. In stopped-flow FRET experiments, the dsRNA is released after pairing with its complementary strand ([Panja et al., 2013]; [Santiago-Frangos et al., 2016]). […] Remaining RNA was displaced from Hfq by excess ssDNA (400 nM DNA2). The averages and standard deviations for three trials are plotted for each Hfq variant. […] (D) Annealing of 5 nM ^32P-ChiX sRNA with 30 nM chiP mRNA without Hfq, or with Hfq65, Hfq102 or Hfq-sCTD, as indicated above each lane. Samples were loaded on a native polyacrylamide gel 60 min or 20 s after the components were mixed. Full gel images are in Figure 4—figure supplement 2. (E) Fractions of free ChiX (black), ChiX·chiP dsRNA (light grey), ChiX·Hfq·chiP ternary complex (hatched) and ChiX·Hfq binary complex (dark grey) after 4 min of annealing, as analyzed by EMSA (Figure 4—figure supplement 2). Figure 4—figure supplement 1. Effect of CTD length on RNA oligomer annealing kinetics. Annealing of 100 nM Target RNA to 50 nM beacon RNA by Hfq variants was measured by stopped flow fluorescence at 30°C in 1 × TNK buffer. (A) Target RNA annealed by Hfq65 (no CTD), Hfq102 (complete CTD) or Hfq-sCTD (shortened linker CTD). (B) Target-U6 (proximal) annealed by Hfq65, Hfq102 or Hfq-sCTD. (C) Target-A18 annealed Hfq65, Hfq102 or Hfq-sCTD. The change in fluorescence emission intensity was normalized to the maximum fluorescence within an experiment. The average of five measurements is shown per progress curve. Annealing data were also collected for 0–200 nM Hfq hexamer. All progress curves were fitted to single- or double-exponential rate equations to obtain kobs, as previously described ([Santiago-Frangos et al., 2016]). [drawing 7] Figure 4—figure supplement 2. Effect of CTD length on sRNA·mRNA annealing. EMSAs of the annealing of 5 nM ^32P-ChiX to 30 nM chiP ([Rasmussen et al., 2009]) at 10°C in 1 × TNK buffer. Reactions were done (A) without Hfq, or with 33.3 nM hexamer (B) Hfq102, (C) Hfq65 or (D) Hfq-sCTD, Control reactions with ChiX only, ChiX and chiP mRNA, ChiX and Hfq or three components were loaded at the beginning (left) and end (right) of each time course, as indicated above the lanes. In the absence of Hfq, only 20% of ChiX·chiP annealed after 30 min. In the presence of all Hfq variants, at least 50% ChiX was in a ternary complex containing ChiX·Hfq·chiP within 1 min, and annealing reached a plateau within 2 min.
To determine whether the above results on RNA oligomers apply to natural RNA substrates for Hfq, we examined the annealing of the Class II sRNA ChiX to the mRNA chiP via electrophoretic mobility shift assays (EMSAs). Because the mRNA targets of class II sRNAs interact with the rim of Hfq ([Schu et al., 2015]; [Małecka et al., 2015]), we reasoned that this sRNA-mRNA pair would be sensitive to displacement by the CTD. Low nanomolar amounts of ChiX and chiP anneal very slowly at 10°C, in the absence of Hfq (Figure 4—figure supplement 2). Whereas, Hfq102, Hfq65 and Hfq-sCTD all form a ternary complex with ChiX and chiP within 20 s (Figure 4D), reaching equilibrium in a few minutes (Figure 4—figure supplement 2). […] Less ternary complex was formed by Hfq102, and the least by Hfq-sCTD.

Hfq102 = assay: RNA binding to Hfq102, fluorescence anisotropy; design: species or system E. coli; conditions: dsRNA product (D16-FAM·R16) versus ssRNA substrate (D16-FAM)

Chain of Hfq65 (P0A6X3 1-65): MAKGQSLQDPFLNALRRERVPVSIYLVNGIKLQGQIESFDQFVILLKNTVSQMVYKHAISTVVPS

Substance | Krel = Kd(P)/Kd(S), Hfq65 (Hfq65) | release of annealed dsRNA (D16-FAM·R16) from Hfq (D16-FAM·R16) | annealing rate of Hfq65 relative to Hfq102 (Target and Target-U6 RNA) | time to form ternary complex with ChiX and chiP (ChiX sRNA and chiP mRNA) | stability of ChiX·Hfq·chiP ternary complex (ChiX sRNA and chiP mRNA) | ChiX-Hfq binary complex remaining (ChiX sRNA and chiP mRNA; after 20 s) | Krel = Kd(P)/Kd(S), Hfq102 (Hfq102)
Hfq65: truncated E. coli Hfq variant lacking the CTD | 2.3 | a large proportion of the dsRNA remained bound to Hfq65 | about five times faster than full-length Hfq102 | ≤ 20 s | most stable | almost no ChiX-Hfq65 binary complex remaining after 20 s | –
Hfq102: full-length E. coli Hfq | – | most of the annealed dsRNA dissociated from Hfq102 | – | ≤ 20 s | medium | – | 7.5
